According to patent US20090305266A1, “TEST FOR OVARIAN CANCER BY DETECTING ABNORMALITY IN FANCD2 PATHWAY” (priority 2006, published 2009):

How the values were obtained:
Type in all cases: cell-based, human
[1] = system: peripheral blood mono-lymphocytes (PBML); experiment: MMC/DEB-induced chromosomal breakage and radial formation in PHA-stimulated peripheral blood lymphocytes;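 further: 40 ng/mL MMC and 200 ng/mL DEB for 48 hours at 37 °C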
Description: Peripheral blood was obtained from all subjects.
(§1) These cultures were then harvested after a 2 hour exposure to 0.25 μg/ml Colcemid (Sigma). Following a 10 minute treatment with hypotonic solution (0.075 M KCl, 5% fetal calf serum) the cells were fixed with a 3:1 mixture of methanol:acetic acid. Slides were stained with Wright's stain, and breaks and radial formation was assessed by counting the number of breaks and radials in a representative number of cells.

[2] = system: ovarian surface epithelium (OSE) cells; experiment: MMC/DEB-induced chromosomal breakage and radial formation in primary ovarian epithelial cell cultures; conditions: 40 ng/ml MMC or 200 ng/ml DEB, 48 hours
Description: (§2) The ovarian cells were scraped from the ovarian surface and enzymatically disaggregated with Collagenase I (GIBCO-Invitrogen, Grand Island, N.Y.) for 4 hours. The cells were washed in RPMI 1640 medium (GIBCO-Invitrogen) and plated in 25 cm^2 flasks coated with collagen in RPMI 1640 supplemented with 20% FCS (Hyclone, Logan, Utah), 10 μg/ml insulin (Sigma, St. Louis, Mo.) and 10 ng/ml EGF (R&D Systems, Minneapolis, Minn.). Studies were performed on primary cells and immortalized cells. Ovarian cells were immortalized by transduction with a retrovirus expressing SV40 large T-antigen obtained from cell line Ψ-2/U195 (Saito et al., Mutat. Res. 294:255-62, 1993; Williams et al., Mol. Cell Bio. 8:3864-71, 1988). SV40-transformed ovarian epithelial cells were transduced with pMMP retroviral vectors containing full-length FANCD2 cDNA produced from the AM12/RVD2 cell line (Naf et al., Mol. Cell Biol. 18:5952-60, 1998; Kuang et al., Blood 96:1625-32, 2000).
as §1

[3] = system: SV40-transformed OV-HR2 ovarian epithelial cells; experiment: MMC/DEB-induced radial formation, SV40-transformed OV-HR2 cells with and without FANCD2 complementation (FIG. 4B); conditions: 40 ng/ml MMC or 200 ng/mL DEB, 48 hours, 50 metaphases
Description: as §2, §1

[4] = system: SV40-transformed OV-CA4 ovarian epithelial cells; experiment: MMC/DEB-induced radial formation, SV40-transformed OV-CA4 cells with and without FANCD2 complementation (FIG. 4B); conditions: 40 ng/ml MMC or 200 ng/mL DEB, 48 hours, 50 metaphases
Description: as §2, §1

[5] = lymphocytes of case OV-CA 1 (carcinoma)
[6] = lymphocytes of case OV-CA 2 (carcinoma)
[7] = lymphocytes of case OV-CA 3 (carcinoma)
[8] = lymphocytes of case OV-CA 4 (carcinoma)
[9] = lymphocytes of case OV-CA 5 (carcinoma)
[10] = lymphocytes of case OV-CA 6 (carcinoma)
[11] = lymphocytes of case OV-CA 7 (carcinoma)
[12] = lymphocytes of case OV-CA 8 (carcinoma)
[13] = lymphocytes of case OV-HR 1 (high-risk)
[14] = lymphocytes of case OV-HR 2 (high-risk)
[15] = lymphocytes of case OV-HR 3 (high-risk)
[16] = lymphocytes of case OV-HR 4 L (high-risk)
[17] = lymphocytes of case OV-HR 5 L (high-risk)
[18] = lymphocytes of case OV-HR 5 R (high-risk)
[19] = lymphocytes of case OV-NL 3 (normal)
[20] = lymphocytes of case OV-NL 9 L (normal)
[21] = lymphocytes of case OV-NL 9 R (normal)
[22] = OV-HR2, FANCD2-complemented (retroviral FANCD2 cDNA)
[23] = OV-HR2, FANCD2-deficient (before FANCD2 expression)
[24] = OV-CA4, FANCD2-complemented (retroviral FANCD2 cDNA)
[25] = OV-CA4, FANCD2-deficient (before FANCD2 expression)

C1OC1C1CO1 (stereo not shown) [DEB, Diepoxybutane]
Radials (%) PBML MMC/DEB [1, 5]: 0% | Radials (%) PBML MMC/DEB [1, 6]: 0% | Radials (%) PBML MMC/DEB [1, 7]: 1/1% | Radials (%) PBML MMC/DEB [1, 8]: 2% | Radials (%) PBML MMC/DEB [1, 9]: 0% | Radials (%) PBML MMC/DEB [1, 10]: 1/1% | Radials (%) PBML MMC/DEB [1, 11]: 1% | Radials (%) PBML MMC/DEB [1, 12]: 1% | Radials (%) PBML MMC/DEB [1, 13]: 0/0% | Radials (%) PBML MMC/DEB [1, 14]: 0/0% | Radials (%) PBML MMC/DEB [1, 15]: 0% | Radials (%) PBML MMC/DEB [1, 16]: 0/0% | Radials (%) PBML MMC/DEB [1, 17]: 1% | Radials (%) PBML MMC/DEB [1, 18]: 0/0% | Radials (%) PBML MMC/DEB [1, 19]: 0/0% | Radials (%) PBML MMC/DEB [1, 20]: 0/0% | Radials (%) PBML MMC/DEB [1, 21]: 0/0% | Radials (%) OSE MMC/DEB ([2]; case OV-CA 1 (carcinoma)): 16% | Radials (%) OSE MMC/DEB ([2]; case OV-CA 2 (carcinoma)): 10% | Radials (%) OSE MMC/DEB ([2]; case OV-CA 3 (carcinoma)): 14% | Radials (%) OSE MMC/DEB ([2]; case OV-CA 4 (carcinoma)): 48% | Radials (%) OSE MMC/DEB ([2]; case OV-CA 5 (carcinoma)): 2% | Radials (%) OSE MMC/DEB ([2]; case OV-HR 1 (high-risk)): 14% | Radials (%) OSE MMC/DEB ([2]; case OV-HR 2 (high-risk)): 64% | Radials (%) OSE MMC/DEB ([2]; case OV-HR 3 (high-risk)): 55% | Radials (%) OSE MMC/DEB ([2]; case OV-HR 4 L (high-risk)): 50% | Radials (%) OSE MMC/DEB ([2]; case OV-HR 5 L (high-risk)): 20% | Radials (%) OSE MMC/DEB ([2]; case OV-HR 5 R (high-risk)): 12% | Radials (%) OSE MMC/DEB ([2]; case OV-NL 1 (normal)): 0/0% | Radials (%) OSE MMC/DEB ([2]; case OV-NL 2 (normal)): 0/0% | Radials (%) OSE MMC/DEB ([2]; case OV-NL 3 (normal)): 0% | Radials (%) OSE MMC/DEB ([2]; case OV-NL 4 (normal)): 1% | Radials (%) OSE MMC/DEB ([2]; case OV-NL 5 (normal)): 1/1% | Radials (%) OSE MMC/DEB ([2]; case OV-NL 6 L (normal)): 0/0% | Radials (%) OSE MMC/DEB ([2]; case OV-NL 6 R (normal)): 0/0% | Radials (%) OSE MMC/DEB ([2]; case OV-NL 7 (normal)): 2% | Radials (%) OSE MMC/DEB ([2]; case OV-NL 8 (normal)): 3/3% | Radials (%) OSE MMC/DEB ([2]; case OV-NL 9 L (normal)): 0/0% | Radials (%) OSE MMC/DEB ([2]; case OV-NL 9 R (normal)): 0/0% | fraction of MMC- and DEB-exposed cells with radial forms [3, 22]: 10% | fraction of MMC- and DEB-exposed cells with radial forms [3, 23]: 30% | fraction of MMC- and DEB-exposed cells with radial forms [4, 24]: 20% | fraction of MMC- and DEB-exposed cells with radial forms [4, 25]: 48%

CO[C@@]12[C@H](COC(N)=O)C3=C(C(=O)C(C)=C(N)C3=O)N1C[C@@H]1N[C@@H]12 [MMC, Mitomycin C]
Radials (%) PBML MMC/DEB [1, 5]: 2% | Radials (%) PBML MMC/DEB [1, 6]: 1% | Radials (%) PBML MMC/DEB [1, 7]: 1/1% | Radials (%) PBML MMC/DEB [1, 8]: 4% | Radials (%) PBML MMC/DEB [1, 9]: 2% | Radials (%) PBML MMC/DEB [1, 10]: 1/1% | Radials (%) PBML MMC/DEB [1, 11]: 0% | Radials (%) PBML MMC/DEB [1, 12]: 3% | Radials (%) PBML MMC/DEB [1, 13]: 0/0% | Radials (%) PBML MMC/DEB [1, 14]: 0/0% | Radials (%) PBML MMC/DEB [1, 15]: 1% | Radials (%) PBML MMC/DEB [1, 16]: 0/0% | Radials (%) PBML MMC/DEB [1, 17]: 0% | Radials (%) PBML MMC/DEB [1, 18]: 0/0% | Radials (%) PBML MMC/DEB [1, 19]: 0/0% | Radials (%) PBML MMC/DEB ([1]; lymphocytes of case OV-NL 6 L (normal)): 0/N.D. % | Radials (%) PBML MMC/DEB ([1]; lymphocytes of case OV-NL 6 R (normal)): 0/N.D. % | Radials (%) PBML MMC/DEB [1, 20]: 0/0% | Radials (%) PBML MMC/DEB [1, 21]: 0/0% | Radials (%) OSE MMC/DEB ([2]; case OV-CA 1 (carcinoma)): 14% | Radials (%) OSE MMC/DEB ([2]; case OV-CA 2 (carcinoma)): 12% | Radials (%) OSE MMC/DEB ([2]; case OV-CA 3 (carcinoma)): 16% | Radials (%) OSE MMC/DEB ([2]; case OV-CA 4 (carcinoma)): 70% | Radials (%) OSE MMC/DEB ([2]; case OV-CA 5 (carcinoma)): 12% | Radials (%) OSE MMC/DEB ([2]; case OV-CA 6 (carcinoma)): 66/N.D. % | Radials (%) OSE MMC/DEB ([2]; case OV-CA 7 (carcinoma)): 0/N.D. % | Radials (%) OSE MMC/DEB ([2]; case OV-CA 8 (carcinoma)): 33/N.D. % | Radials (%) OSE MMC/DEB ([2]; case OV-HR 1 (high-risk)): 10% | Radials (%) OSE MMC/DEB ([2]; case OV-HR 2 (high-risk)): 50% | Radials (%) OSE MMC/DEB ([2]; case OV-HR 3 (high-risk)): 64% | Radials (%) OSE MMC/DEB ([2]; case OV-HR 4 L (high-risk)): 66% | Radials (%) OSE MMC/DEB ([2]; case OV-HR 5 L (high-risk)): 47% | Radials (%) OSE MMC/DEB ([2]; case OV-HR 5 R (high-risk)): 30% | Radials (%) OSE MMC/DEB ([2]; case OV-NL 1 (normal)): 0/0% | Radials (%) OSE MMC/DEB ([2]; case OV-NL 2 (normal)): 0/0% | Radials (%) OSE MMC/DEB ([2]; case OV-NL 3 (normal)): 2% | Radials (%) OSE MMC/DEB ([2]; case OV-NL 4 (normal)): 4% | Radials (%) OSE MMC/DEB ([2]; case OV-NL 5 (normal)): 1/1% | Radials (%) OSE MMC/DEB ([2]; case OV-NL 6 L (normal)): 0/0% | Radials (%) OSE MMC/DEB ([2]; case OV-NL 6 R (normal)): 0/0% | Radials (%) OSE MMC/DEB ([2]; case OV-NL 7 (normal)): 1% | Radials (%) OSE MMC/DEB ([2]; case OV-NL 8 (normal)): 3/3% | Radials (%) OSE MMC/DEB ([2]; case OV-NL 9 L (normal)): 0/0% | Radials (%) OSE MMC/DEB ([2]; case OV-NL 9 R (normal)): 0/0% | fraction of MMC- and DEB-exposed cells with radial forms [3, 22]: 32% | fraction of MMC- and DEB-exposed cells with radial forms [3, 23]: 60% | fraction of MMC- and DEB-exposed cells with radial forms [4, 24]: 56% | fraction of MMC- and DEB-exposed cells with radial forms [4, 25]: 70%
